Assay results: patent US20120029187A1, “HALOALKYLSULFONANILIDE DERIVATIVE” (Nissan Chemical Industries, Ltd., priority 2009, published 2012)

Key:
Format in all cases: in vivo
velvetleaf [1] = assay: Test Example 3: herbicidal effects in soil treatment; settings: dose 3.2 g/a
Outline: (§1)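 Seeds were sown in sterilized diluvial soil and covered with about 1.5 cm of soil. Compounds, formulated as emulsifiable concentrates and diluted with water, were sprayed evenly over the soil surface at set doses in g/a. Herbicidal effect was scored on a rating scale three weeks later.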

barnyardgrass [2] = assay: as above; settings: dose 3.2 g/a
Outline: as §1

common ragweed [3] = assay: as above; settings: dose 3.2 g/a
Outline: as §1

giant foxtail [4] = assay: as above; settings: dose 3.2 g/a
Outline: as §1

common lambsquater [5] = assay: as above; settings: dose 3.2 g/a
Outline: as §1

large crabgrass [6] = assay: as above; settings: dose 3.2 g/a
Outline: as §1

redroot pigweed [7] = assay: as above; settings: dose 3.2 g/a
Outline: as §1

water foxtail [8] = assay: as above; settings: dose 3.2 g/a
Outline: as §1

common chickweed [9] = assay: as above; settings: dose 3.2 g/a
Outline: as §1

beadstraw [10] = assay: as above; settings: dose 3.2 g/a
Outline: as §1

Italian ryegrass [11] = assay: as above; settings: dose 3.2 g/a
Outline: as §1

transplanted rice = assay: Test Example 1: preemergence treatment under submerged conditions, effect on crop; settings: dose 2.52 g/a
Outline: (§2)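 Flooded-paddy preemergence assay; EC diluted with water, surface-applied at weed seeding; doses g/a; rice transplanted at 2.5 leaves; 0–5 mortality score after 3 weeks.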

bulrush [12] = assay: Test Example 2: herbicidal effects during the vegetation period under submerged conditions; settings: treatment during the vegetation period under submerged conditions; dose 2.52 g/a
Outline: (§3)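 Barnyardgrass, bulrush and ducksalad were co-sown in alluvial soil flooded to 4 cm and grown in a greenhouse at 25 to 30° C. At the 1- or 2-leaf stage, water-diluted emulsifiable concentrates went onto the water surface at set doses (g/a). Herbicidal effect was scored three weeks later on a graded scale.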

barnyardgrass [13] = assay: as above; settings: treatment during the vegetation period under submerged conditions; dose 2.52 g/a
Outline: as §3

ducksalad [14] = assay: as above; settings: treatment during the vegetation period under submerged conditions; dose 2.52 g/a
Outline: as §3

velvetleaf [15] = assay: Test Example 4: herbicidal effect in foliage treatment; settings: dose 3.2 g/a
Outline: (§4)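 Seeds sown in sterilized diluvial soil under ~1.5 cm soil cover and grown 14 days in a greenhouse at 25 to 30° C. Emulsifiable concentrates diluted with water were then sprayed uniformly on foliage at predetermined doses (g/a). Herbicidal effect was scored three weeks after application on a graded evaluation scale.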

barnyardgrass [16] = assay: as above; settings: dose 3.2 g/a
Outline: as §4

common ragweed [17] = assay: as above; settings: dose 3.2 g/a
Outline: as §4

giant foxtail [18] = assay: as above; settings: dose 3.2 g/a
Outline: as §4

posumbu knotweed [19] = assay: as above; settings: dose 3.2 g/a
Outline: as §4

common lambsquater [20] = assay: as above; settings: dose 3.2 g/a
Outline: as §4

large crabgrass [21] = assay: as above; settings: dose 3.2 g/a
Outline: as §4

redroot pigweed [22] = assay: as above; settings: dose 3.2 g/a
Outline: as §4

water foxtail [23] = assay: as above; settings: dose 3.2 g/a
Outline: as §4

common chickweed [24] = assay: as above; settings: dose 3.2 g/a
Outline: as §4

Italian ryegrass [25] = assay: as above; settings: dose 3.2 g/a
Outline: as §4

bulrush [26] = assay: Test Example 1: herbicidal effects in preemergence treatment under submerged conditions; settings: dose 2.52 g/a
Outline: as §2

barnyardgrass [27] = assay: as above; settings: dose 2.52 g/a
Outline: as §2

ducksalad [28] = assay: as above; settings: dose 2.52 g/a
Outline: as §2

posumbu knotweed [29] = assay: Test Example 3: herbicidal effects in soil treatment; settings: dose 3.2 g/a
Outline: as §1

wild oat [30] = assay: as above; settings: dose 3.2 g/a
Outline: as §1

wild oat [31] = assay: Test Example 4: herbicidal effect in foliage treatment; settings: dose 3.2 g/a, three weeks after the application
Outline: as §4

beadstraw [32] = assay: as above; settings: dose 3.2 g/a, three weeks after the application
Outline: as §4

[33] = three weeks after the application

## CC1(c2ccccc2)CC(=O)N(Cc2ccccc2NS(=O)(=O)C(F)(F)F)CO1 (stereo not shown) [II-57]
Velvetleaf [1]
  I: velvetleaf, herbicidal effect (evaluation scale 0-5): 5 (mortality of 90% or above (nearly complete death))
Barnyardgrass [2]
  A: barnyardgrass, herbicidal effect (evaluation scale 0-5): 2 (mortality of at least 20% and less than 40%)
Common ragweed [3]
  J: common ragweed, herbicidal effect (evaluation scale 0-5): 0 (mortality of less than 5% (almost ineffective))
Giant foxtail [4]
  E: giant foxtail, herbicidal effect (evaluation scale 0-5): 5 (mortality of 90% or above (nearly complete death))
Common lambsquater [5]
  L: common lambsquater, herbicidal effect (evaluation scale 0-5): 0 (mortality of less than 5% (almost ineffective))
Large crabgrass [6]
  D: large crabgrass, herbicidal effect (evaluation scale 0-5): 3 (mortality of at least 40% and less than 70%)
Redroot pigweed [7]
  K: redroot pigweed, herbicidal effect (evaluation scale 0-5): 0 (mortality of less than 5% (almost ineffective))
Water foxtail [8]
  G: water foxtail, herbicidal effect (evaluation scale 0-5): 5 (mortality of 90% or above (nearly complete death))
Common chickweed [9]
  N: common chickweed, herbicidal effect (evaluation scale 0-5): 4 (mortality of at least 70% and less than 90%)
Beadstraw [10]
  O: beadstraw, herbicidal effect (evaluation scale 0-5): 0 (mortality of less than 5% (almost ineffective))
Italian ryegrass [11]
  H: Italian ryegrass, herbicidal effect (evaluation scale 0-5): 5 (mortality of 90% or above (nearly complete death))
Transplanted rice
  a: transplanted rice, effect on crop (evaluation scale 0-5): 0 (mortality of less than 5% (almost ineffective))
Bulrush [12]
  B: bulrush, herbicidal effect (evaluation scale 0-5): 5 (mortality of 90% or above (nearly complete death))
Barnyardgrass [13]
  A: barnyardgrass, herbicidal effect (evaluation scale 0-5): 2 (mortality of at least 20% and less than 40%)
Ducksalad [14]
  C: ducksalad, herbicidal effect (evaluation scale 0-5): 5 (mortality of 90% or above (nearly complete death))
Velvetleaf [15]; three weeks after application
  I: velvetleaf, herbicidal effect: 3 (mortality of at least 40% and less than 70%)
Barnyardgrass [16]; three weeks after application
  A: barnyardgrass, herbicidal effect: 4 (mortality of at least 70% and less than 90%)
Common ragweed [17]; three weeks after application
  J: common ragweed, herbicidal effect: 3 (mortality of at least 40% and less than 70%)
Giant foxtail [18]; three weeks after application
  E: giant foxtail, herbicidal effect: 2 (mortality of at least 20% and less than 40%)
Posumbu knotweed [19]; three weeks after application
  M: posumbu knotweed, herbicidal effect: 3 (mortality of at least 40% and less than 70%)
Common lambsquater [20]; three weeks after application
  L: common lambsquater, herbicidal effect: 3 (mortality of at least 40% and less than 70%)
Large crabgrass [21]; three weeks after application
  D: large crabgrass, herbicidal effect: 2 (mortality of at least 20% and less than 40%)
Redroot pigweed [22]; three weeks after application
  K: redroot pigweed, herbicidal effect: 0 (mortality of less than 5% (almost ineffective))
Water foxtail [23]; three weeks after application
  G: water foxtail, herbicidal effect: 3 (mortality of at least 40% and less than 70%)
Common chickweed [24]; three weeks after application
  N: common chickweed, herbicidal effect: 4 (mortality of at least 70% and less than 90%)
Italian ryegrass [25]; three weeks after application
  H: Italian ryegrass, herbicidal effect: 5 (mortality of 90% or above (nearly complete death))
Bulrush [26]
  B: bulrush, herbicidal effect (evaluation scale 0-5): 5 (mortality of 90% or above (nearly complete death))
Barnyardgrass [27]
  A: barnyardgrass, herbicidal effect (evaluation scale 0-5): 5 (mortality of 90% or above (nearly complete death))
Ducksalad [28]
  C: ducksalad, herbicidal effect (evaluation scale 0-5): 5 (mortality of 90% or above (nearly complete death))

## CCN1COCN(Cc2ccccc2N(C(=O)OCC(C)C)S(=O)(=O)C(F)(F)F)C1=O [IV-8]
Velvetleaf [1]
  herbicidal effect, I: velvetleaf: 0 (mortality of less than 5% (almost ineffective))
Barnyardgrass [2]
  herbicidal effect, A: barnyardgrass: 4 (mortality of at least 70% and less than 90%)
Common ragweed [3]
  herbicidal effect, J: common ragweed: 0 (mortality of less than 5% (almost ineffective))
Giant foxtail [4]
  herbicidal effect, E: giant foxtail: 1 (mortality of at least 5% and less than 20%)
Posumbu knotweed [29]
  herbicidal effect, M: posumbu knotweed: 0 (mortality of less than 5% (almost ineffective))
Common lambsquater [5]
  herbicidal effect, L: common lambsquater: 0 (mortality of less than 5% (almost ineffective))
Wild oat [30]
  herbicidal effect, F: wild oat: 0 (mortality of less than 5% (almost ineffective))
Large crabgrass [6]
  herbicidal effect, D: large crabgrass: 1 (mortality of at least 5% and less than 20%)
Redroot pigweed [7]
  herbicidal effect, K: redroot pigweed: 0 (mortality of less than 5% (almost ineffective))
Water foxtail [8]
  herbicidal effect, G: water foxtail: 5 (mortality of 90% or above (nearly complete death))
Common chickweed [9]
  herbicidal effect, N: common chickweed: 0 (mortality of less than 5% (almost ineffective))
Italian ryegrass [11]
  herbicidal effect, H: Italian ryegrass: 0 (mortality of less than 5% (almost ineffective))
Transplanted rice
  a: transplanted rice, effect on crop (evaluation scale 0-5): 0 (mortality of less than 5% (almost ineffective))
Bulrush [12]
  B: bulrush, herbicidal effect (evaluation scale 0-5): 5 (mortality of 90% or above (nearly complete death))
Barnyardgrass [13]
  A: barnyardgrass, herbicidal effect (evaluation scale 0-5): 5 (mortality of 90% or above (nearly complete death))
Ducksalad [14]
  C: ducksalad, herbicidal effect (evaluation scale 0-5): 4 (mortality of at least 70% and less than 90%)
Velvetleaf [15]; [33]
  I: velvetleaf, herbicidal effect: 3 (mortality of at least 40% and less than 70%)
Barnyardgrass [16]; [33]
  A: barnyardgrass, herbicidal effect: 5 (mortality of 90% or above (nearly complete death))
Common ragweed [17]; [33]
  J: common ragweed, herbicidal effect: 3 (mortality of at least 40% and less than 70%)
Giant foxtail [18]; [33]
  E: giant foxtail, herbicidal effect: 4 (mortality of at least 70% and less than 90%)
Posumbu knotweed [19]; [33]
  M: posumbu knotweed, herbicidal effect: 0 (mortality of less than 5% (almost ineffective))
Common lambsquater [20]; [33]
  L: common lambsquater, herbicidal effect: 0 (mortality of less than 5% (almost ineffective))
Wild oat [31]
  F: wild oat, herbicidal effect: 0 (mortality of less than 5% (almost ineffective))
Large crabgrass [21]; [33]
  D: large crabgrass, herbicidal effect: 4 (mortality of at least 70% and less than 90%)
Redroot pigweed [22]; [33]
  K: redroot pigweed, herbicidal effect: 0 (mortality of less than 5% (almost ineffective))
Water foxtail [23]; [33]
  G: water foxtail, herbicidal effect: 5 (mortality of 90% or above (nearly complete death))
Common chickweed [24]; [33]
  N: common chickweed, herbicidal effect: 3 (mortality of at least 40% and less than 70%)
Beadstraw [32]
  O: beadstraw, herbicidal effect: 3 (mortality of at least 40% and less than 70%)
Italian ryegrass [25]; [33]
  H: Italian ryegrass, herbicidal effect: 0 (mortality of less than 5% (almost ineffective))
Bulrush [26]
  B: bulrush, herbicidal effect (evaluation scale 0-5): 5 (mortality of 90% or above (nearly complete death))
Barnyardgrass [27]
  A: barnyardgrass, herbicidal effect (evaluation scale 0-5): 5 (mortality of 90% or above (nearly complete death))
Ducksalad [28]
  C: ducksalad, herbicidal effect (evaluation scale 0-5): 4 (mortality of at least 70% and less than 90%)
